According to paper PMC9358669, “Native metabolomics identifies the rivulariapeptolide family of protease inhibitors” (Nature Communications, 2022):
Like-named read-outs stand apart in the source and are kept apart here.

Legend:
Elastase = target: T1, Elastase (Sus scrofa, UniProt P00772); assay: Elastase inhibition, fluorogenic substrate assay (MeOSuc-Ala-Ala-Pro-Val-AMC); format: biochemical, Sus domesticus; conditions: for IC50 / Mean (RFU/s): 40 min pre-incubation; for IC50: mean, n = 3; for Mean (RFU/s): Elastase
T1 construct: purchased Sigma-Aldrich

Chymotrypsin = target: T2, Chymotrypsin (Bos taurus, UniProt P00766); assay: Chymotrypsin inhibition, fluorogenic substrate assay (Suc-Ala-Ala-Pro-Phe-AMC); format: biochemical; conditions: for Mean (RFU/s): Chymotrypsin; for fold increase in potency towards chymotrypsin: molassamide B (6) compared to molassamide (5)
T2 construct: purchased Sigma-Aldrich

Proteinase K = target: T3, Proteinase K (Parengyodontium album, UniProt P06873); assay: Proteinase K inhibition, fluorogenic substrate assay (Suc-Ala-Ala-Pro-Phe-AMC); format: biochemical, Tritirachium album; conditions: for IC50 / Mean (RFU/s): 40 min pre-incubation; for IC50: mean, n = 3; for Mean (RFU/s): Proteinase K
T3 construct: purchased Roche

[1] = inhibitor concentration 0.0508053 nM
[2] = inhibitor concentration 0.152416 nM
[3] = inhibitor concentration 0.457247 nM
[4] = inhibitor concentration 1.37174 nM
[5] = inhibitor concentration 4.11523 nM
[6] = inhibitor concentration 12.3457 nM
[7] = inhibitor concentration 37.037 nM
[8] = inhibitor concentration 111.111 nM
[9] = inhibitor concentration 333.333 nM
[10] = inhibitor concentration 1000 nM
[11] = inhibitor concentration 3000 nM
[12] = 40 min pre-incubation, mean, n = 3, read-out: IC50 Chymotrypsin
[13] = inhibitor concentration 0.0508053 nM, 40 min pre-incubation
[14] = inhibitor concentration 0.152416 nM, 40 min pre-incubation
[15] = inhibitor concentration 0.457247 nM, 40 min pre-incubation
[16] = inhibitor concentration 1.37174 nM, 40 min pre-incubation
[17] = inhibitor concentration 4.11523 nM, 40 min pre-incubation
[18] = inhibitor concentration 12.3457 nM, 40 min pre-incubation
[19] = inhibitor concentration 37.037 nM, 40 min pre-incubation
[20] = inhibitor concentration 111.111 nM, 40 min pre-incubation
[21] = inhibitor concentration 333.333 nM, 40 min pre-incubation
[22] = inhibitor concentration 1000 nM, 40 min pre-incubation
[23] = inhibitor concentration 3000 nM, 40 min pre-incubation
[24] = Supplementary Table 5, compounds of this study, read-out: Chymotrypsin IC50
[25] = molassamide B (6) compared to molassamide (5)

T1 sequence (P00772 27-266): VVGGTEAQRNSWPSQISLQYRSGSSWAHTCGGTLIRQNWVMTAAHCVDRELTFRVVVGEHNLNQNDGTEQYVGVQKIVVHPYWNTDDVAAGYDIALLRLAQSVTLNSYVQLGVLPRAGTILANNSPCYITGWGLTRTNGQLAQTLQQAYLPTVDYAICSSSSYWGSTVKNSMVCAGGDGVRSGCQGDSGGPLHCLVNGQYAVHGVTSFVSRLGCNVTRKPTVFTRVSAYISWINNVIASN
T3 sequence (P06873 106-384): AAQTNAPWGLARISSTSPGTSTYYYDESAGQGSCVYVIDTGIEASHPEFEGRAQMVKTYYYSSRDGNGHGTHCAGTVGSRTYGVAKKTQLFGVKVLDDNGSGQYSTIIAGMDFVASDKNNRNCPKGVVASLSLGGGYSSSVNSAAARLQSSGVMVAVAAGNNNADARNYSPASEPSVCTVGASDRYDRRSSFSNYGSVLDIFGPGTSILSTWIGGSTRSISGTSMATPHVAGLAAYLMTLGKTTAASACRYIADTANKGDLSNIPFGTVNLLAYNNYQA

SMILES: CC=C1NC(=O)[C@@H](NC(=O)[C@@H](NC(=O)[C@@H]2CCCN2C(=O)CCC)[C@@H](C)OC(=O)C2CCCN2C(=O)CCC)[C@@H](C)OC(=O)[C@H](C(C)C)NC(=O)[C@H](Cc2ccc(O)cc2)N(C)C(=O)[C@H](Cc2ccccc2)N2C(=O)[C@H](CC[C@H]2O)NC1=O (stereo partly drawn) [Rivulariapeptolide 1155, rivulariapeptolide 1155]
- IC50 (Elastase): 4.94 nM
- Mean (RFU/s) (Elastase; [1]): 0.9773 RFU/s
- Mean (RFU/s) (Elastase; [2]): 0.8963 RFU/s
- Mean (RFU/s) (Elastase; [3]): 0.839 RFU/s
- Mean (RFU/s) (Elastase; [4]): 0.7733 RFU/s
- Mean (RFU/s) (Elastase; [5]): 0.5503 RFU/s
- Mean (RFU/s) (Elastase; [6]): 0.1703 RFU/s
- Mean (RFU/s) (Elastase; [7]): 0.054 RFU/s
- Mean (RFU/s) (Elastase; [8]): 0 RFU/s
- Mean (RFU/s) (Elastase; [9]): 0 RFU/s
- Mean (RFU/s) (Elastase; [10]): 0 RFU/s
- Mean (RFU/s) (Elastase; [11]): 0 RFU/s
- IC50 (Chymotrypsin; [12]): 41.8 nM
- Mean (RFU/s) (Chymotrypsin; [13]): 5.293 RFU/s
- Mean (RFU/s) (Chymotrypsin; [14]): 5.198 RFU/s
- Mean (RFU/s) (Chymotrypsin; [15]): 5.411 RFU/s
- Mean (RFU/s) (Chymotrypsin; [16]): 5.774 RFU/s
- Mean (RFU/s) (Chymotrypsin; [17]): 4.968 RFU/s
- Mean (RFU/s) (Chymotrypsin; [18]): 4.399 RFU/s
- Mean (RFU/s) (Chymotrypsin; [19]): 2.874 RFU/s
- Mean (RFU/s) (Chymotrypsin; [20]): 1.339 RFU/s
- Mean (RFU/s) (Chymotrypsin; [21]): 0.494 RFU/s
- Mean (RFU/s) (Chymotrypsin; [22]): 0.1737 RFU/s
- Mean (RFU/s) (Chymotrypsin; [23]): 0 RFU/s
- IC50 (Chymotrypsin; [24]): 41.8 nM
- IC50 (Proteinase K): 56.5 nM
- Mean (RFU/s) (Proteinase K; [1]): 6.603 RFU/s
- Mean (RFU/s) (Proteinase K; [2]): 6.245 RFU/s
- Mean (RFU/s) (Proteinase K; [3]): 6.403 RFU/s
- Mean (RFU/s) (Proteinase K; [4]): 6.159 RFU/s
- Mean (RFU/s) (Proteinase K; [5]): 6.088 RFU/s
- Mean (RFU/s) (Proteinase K; [6]): 5.497 RFU/s
- Mean (RFU/s) (Proteinase K; [7]): 4.358 RFU/s
- Mean (RFU/s) (Proteinase K; [8]): 1.504 RFU/s
- Mean (RFU/s) (Proteinase K; [9]): 0.363 RFU/s
- Mean (RFU/s) (Proteinase K; [10]): 0.09033 RFU/s
- Mean (RFU/s) (Proteinase K; [11]): 0.027 RFU/s

SMILES: C/C=C1\NC(=O)[C@@H](NC(=O)[C@@H](NC(=O)[C@H](C)NC(=O)CCC)[C@@H](C)O)[C@@H](C)OC(=O)[C@H](C(C)C)NC(=O)[C@H](Cc2ccc(O)c(Br)c2)N(C)C(=O)[C@H](Cc2ccccc2)N2C(=O)[C@H](CC[C@H]2O)NC1=O [Molassamide B, molassamide B]
- IC50 (Elastase): 11.7 nM
- Mean (RFU/s) (Elastase; [1]): 0.846 RFU/s
- Mean (RFU/s) (Elastase; [2]): 0.8437 RFU/s
- Mean (RFU/s) (Elastase; [3]): 0.8327 RFU/s
- Mean (RFU/s) (Elastase; [4]): 0.7837 RFU/s
- Mean (RFU/s) (Elastase; [5]): 0.677 RFU/s
- Mean (RFU/s) (Elastase; [6]): 0.418 RFU/s
- Mean (RFU/s) (Elastase; [7]): 0.1113 RFU/s
- Mean (RFU/s) (Elastase; [8]): 0.024 RFU/s
- Mean (RFU/s) (Elastase; [9]): 0 RFU/s
- Mean (RFU/s) (Elastase; [10]): 0 RFU/s
- Mean (RFU/s) (Elastase; [11]): 0 RFU/s
- fold increase in potency towards elastase (Elastase; [25]): three
- IC50 (Chymotrypsin; [12]): 24.6 nM
- Mean (RFU/s) (Chymotrypsin; [13]): 5.208 RFU/s
- Mean (RFU/s) (Chymotrypsin; [14]): 5.061 RFU/s
- Mean (RFU/s) (Chymotrypsin; [15]): 5.116 RFU/s
- Mean (RFU/s) (Chymotrypsin; [16]): 5.104 RFU/s
- Mean (RFU/s) (Chymotrypsin; [17]): 4.681 RFU/s
- Mean (RFU/s) (Chymotrypsin; [18]): 3.888 RFU/s
- Mean (RFU/s) (Chymotrypsin; [19]): 1.754 RFU/s
- Mean (RFU/s) (Chymotrypsin; [20]): 0.844 RFU/s
- Mean (RFU/s) (Chymotrypsin; [21]): 0.3123 RFU/s
- Mean (RFU/s) (Chymotrypsin; [22]): 0.1157 RFU/s
- Mean (RFU/s) (Chymotrypsin; [23]): 0 RFU/s
- IC50 (Chymotrypsin; [24]): 24.7 nM
- fold increase in potency towards chymotrypsin (Chymotrypsin): thirtyfive
- fold increase in potency towards chymotrypsin (Chymotrypsin; listed as 6): 35 fold
- IC50 (Proteinase K): 5.42 nM
- Mean (RFU/s) (Proteinase K; [1]): 6.3 RFU/s
- Mean (RFU/s) (Proteinase K; [2]): 6.284 RFU/s
- Mean (RFU/s) (Proteinase K; [3]): 6.22 RFU/s
- Mean (RFU/s) (Proteinase K; [4]): 5.564 RFU/s
- Mean (RFU/s) (Proteinase K; [5]): 3.825 RFU/s
- Mean (RFU/s) (Proteinase K; [6]): 1.43 RFU/s
- Mean (RFU/s) (Proteinase K; [7]): 0.3433 RFU/s
- Mean (RFU/s) (Proteinase K; [8]): 0.1 RFU/s
- Mean (RFU/s) (Proteinase K; [9]): 0.03367 RFU/s
- Mean (RFU/s) (Proteinase K; [10]): 0 RFU/s
- Mean (RFU/s) (Proteinase K; [11]): 0 RFU/s
- fold increase in potency towards proteinase K (Proteinase K; [25]): four
